Source: ChEMBL document CHEMBL2034965, “The synthesis of 2,5-bis(4-amidinophenyl)thiophene derivatives providing submicromolar-range inhibition of the botulinum neurotoxin serotype A metalloprotease” (Eur J Med Chem, 2012)

Key:
[1] = target: Botulinum neurotoxin type A (Clostridium botulinum, UniProt P0DPI0); test: Competitive inhibition of clostridium botulinum Botulinum neurotoxin type A light chain by RP-HPLC analysis
[2] = target: Botulinum neurotoxin type A (Clostridium botulinum) (UniProt P0DPI0); test: Ratio of Ki for NSC 300510 to compound Ki for clostridium botulinum Botulinum neurotoxin type A light chain by RP-HPLC analysis
Sequence of Botulinum neurotoxin type A (Clostridium botulinum) (P0DPI0 2-448 limits assumed): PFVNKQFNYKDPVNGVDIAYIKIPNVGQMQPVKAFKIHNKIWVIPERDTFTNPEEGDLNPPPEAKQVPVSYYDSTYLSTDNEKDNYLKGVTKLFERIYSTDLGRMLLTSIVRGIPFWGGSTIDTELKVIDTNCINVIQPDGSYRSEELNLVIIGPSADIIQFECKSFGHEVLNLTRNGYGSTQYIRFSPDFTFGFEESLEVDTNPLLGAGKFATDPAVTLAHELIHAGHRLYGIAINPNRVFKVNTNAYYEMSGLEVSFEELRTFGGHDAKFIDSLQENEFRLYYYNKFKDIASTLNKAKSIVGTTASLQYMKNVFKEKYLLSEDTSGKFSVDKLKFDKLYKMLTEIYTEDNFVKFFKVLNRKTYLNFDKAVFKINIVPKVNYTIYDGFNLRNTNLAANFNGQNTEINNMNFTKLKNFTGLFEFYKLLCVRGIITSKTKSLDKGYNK

[3] = target: Botulinum neurotoxin type A (Clostridium botulinum) (UniProt P0DPI0); test: Inhibition of clostridium botulinum Botulinum neurotoxin type A light chain at 20 uM by RP-HPLC analysis

Sequence of Botulinum neurotoxin type A (P0DPI0 2-448 limits assumed): as above

SMILES	Ki [1]	Ratio Ki [2]	inhibition [3]
Clc1ccc2c(NCCNCc3ccc(-c4ccc(-c5ccc(CNCCNc6ccnc7cc(Cl)ccc67)cc5)s4)cc3)ccnc2c1	882 nM	–	–
O=C(NCCCNc1ccnc2cc(Cl)ccc12)c1cc(NC(=O)c2ccc(C(=O)Nc3cc(C(=O)NCCCNc4ccnc5cc(Cl)ccc45)cc(C4=NCCN4)c3)cc2)cc(C2=NCCN2)c1	–	15	–
N=C(N)c1ccc(-c2ccc(-c3ccc(C(=N)N)cc3)s2)cc1	10900 nM	–	78%
Clc1ccc2c(NCCCCCNCc3ccc(-c4ccc(-c5ccc(CNCCCCCNc6ccnc7cc(Cl)ccc67)cc5)s4)cc3)ccnc2c1	889 nM	–	–
Clc1ccc2c(NCCCNCc3ccc(-c4ccc(-c5ccc(CNCCCNc6ccnc7cc(Cl)ccc67)cc5)s4)cc3)ccnc2c1	–	36	–
Clc1ccc2c(NCCCCNCc3ccc(-c4ccc(-c5ccc(CNCCCCNc6ccnc7cc(Cl)ccc67)cc5)s4)cc3)ccnc2c1	535 nM	–	–
